The source of these data is patent publication US20210393678A1, “PERSONALIZED FOOD PRODUCTS FOR ENSURING ADEQUATE IRON INTAKE” (MY-OR D[…]., priority 2018, published 2021).

The structures appear in SMILES notation.

For assay [1] the following is noted: clinical studies; cited from earlier work.
Assay [2] in a line: Noninvasive total blood hemoglobin in immoderate iron deficient subjects before and after 2 weeks of iron chelate. To be noted: immoderate iron deficient subjects 2-7 years of age, baseline average 10.03 g/dL, 1 mL (15 mg) daily, Masimo rainbow SET SpHb. The assay is classed as in vivo, human. The protocol:
To examine this, the inventors have recruited a population (2-7 years of age) of immoderate iron deficient subjects having an average hemoglobin level of 10.03 g/dL. Total blood hemoglobin levels were measured noninvasively at baseline (time 0) and following treatment (after 2 weeks) from the index finger of subjects using Masimo rainbow SET SpHb technology. Subjects were instructed to take 1 mL of iron bis-glycinate chelate (15 mg) daily.

With `NCC(=O)[O-].NCC(=O)[O-].[Fe+2]` [Ferrochel, ferrous bis glycinate], the “hemoglobin and ferritin indices compared with ferrous sulfate or ferrous ascorbate” value in assay [1] is “improved hemoglobin and ferritin indices at lower dosages than ferrous sulfate or ferrous ascorbate”.

For `NCC(=O)[O-].NCC(=O)[O-].[Fe+2]` [iron bis-glycinate chelate], the “average total blood hemoglobin level following treatment” value in assay [2] (after two weeks) worked out at 11.13 g/dL. Besides, the “increase of total blood hemoglobin level, on average” value in assay [2] (two weeks, index finger) was 11%.
